In ChEMBL document CHEMBL5154709, “Tetrazole derivatives bearing benzodiazepine moiety-synthesis and action mode against virulence of Candida albicans” (Eur J Med Chem, 2022):
Activity calls are given as the source filed them. No cut-off for these calls is given here.

Experiments:
Candida albicans [1] = assay: Antifungal activity against Candida albicans SC5314 assessed as inhibition of fungal growth at 0.0625 ug/ml incubated for 18 hrs by M27-A3 based microdilution method relative to control; assay type: functional
Candida albicans [2] = assay: Antifungal activity against Candida albicans SC5314 assessed as inhibition of fungal growth at 1 ug/ml incubated for 18 hrs by M27-A3 based microdilution method relative to control; assay type: functional
Candida albicans [3] = assay: Induction of reactive oxygen species generation in Candida albicans SC5314 assessed as increase in ROS level at 16 ug/ml incubated for 18 hrs by DCFH-DA staining based flow cytometric analysis (reference value: 0.77+/- 0.4%); assay type: functional; conditions: dose 16 µg/ml
Candida albicans [4] = assay: Antifungal activity against Candida albicans SC5314 assessed as inhibition of fungal growth at 16 ug/ml incubated for 18 hrs by M27-A3 based microdilution method relative to control; assay type: functional
Candida albicans [5] = assay: Antifungal activity against Candida albicans SC5314 assessed as inhibition of fungal growth at 0.5 ug/ml incubated for 48 hrs by M27-A3 based microdilution method relative to control; assay type: functional
Candida albicans [6] = assay: Antifungal activity against Candida albicans SC5314 assessed as inhibition of fungal growth at 0.25 ug/ml incubated for 18 hrs by M27-A3 based microdilution method relative to control; assay type: functional
Candida albicans [7] = assay: Antifungal against Candida albicans SC5314 biofilm co-cultured with African green monkey Vero cells assessed as accidental cell death in pseudohyphal cells by measuring orange fluorescence emission at 16 ug/ml incubated for 18 hrs by PI/acridine orange double staining based confocal laser scanning microscopic analysis; assay type: functional, organism-based; conditions: dose 16.0 µg/ml
Candida albicans [8] = assay: In vivo antifungal activity against Candida albicans SC5314 infected in Galleria mellonella larvae assessed as survival of larvae by measuring health score index at 16 ug/ml administered 1 hr post infection measured within 5 days by Hematoxylin and eosin staining; assay type: functional, organism-based; conditions: dose 16.0 µg/ml, time 5.0 day
Candida albicans [9] = assay: Induction of reactive oxygen species generation in Candida albicans CNB1/cnb1delta mutant assessed as increase in ROS level at 16 ug/ml incubated for 18 hrs by DCFH-DA staining based flow cytometric analysis (reference value: 3.8+/- 4.2%); assay type: functional; conditions: dose 16 µg/ml
Candida albicans [10] = assay: Antifungal against Candida albicans cnb1delta/cnb1delta mutant biofilm assessed as apoptotic cells by measuring lysosomal membrane permeabilization at 16 ug/ml incubated for 18 hrs by PI/acridine orange double staining based confocal laser scanning microscopic analysis; assay type: functional, organism-based; conditions: dose 16.0 µg/ml
Candida albicans [11] = assay: Effect on HSP90 expression in Candida albicans BWP17 assessed as fold increase in relative expression of HSP90 gene level at 2 ug/ml incubated for 18 hrs in presence of calcium chloride by RT-PCR analysis; assay type: functional; conditions: dose 2.0 µg/ml
Candida albicans [12] = assay: Downregulation of HSP90 gene expression in Candida albicans cnb1delta/cnb1delta mutant at 2 ug/ml incubated for 6 hrs in presence of calcium chloride by RT-PCR analysis; assay type: functional; conditions: dose 2.0 µg/ml
Candida albicans [13] = assay: Antifungal activity against Candida albicans SC5314 assessed as inhibition of fungal growth at 4 ug/ml incubated for 18 hrs by M27-A3 based microdilution method relative to control; assay type: functional
Candida albicans [14] = assay: Effect on HSP90 expression in Candida albicans cnb1delta/cnb1delta mutant assessed as decrease in relative expression of HSP90 gene level at 2 ug/ml incubated for 18 hrs by RT-PCR analysis; assay type: functional; conditions: dose 2.0 µg/ml
Candida albicans [15] = assay: Effect on HSP90 expression in Candida albicans cnb1delta/CNB1 mutant assessed as fold increase in relative expression of HSP90 gene level at 2 ug/ml incubated for 18 hrs in presence of calcium chloride by RT-PCR analysis; assay type: functional; conditions: dose 2.0 µg/ml
Candida albicans [16] = assay: Antifungal against Candida albicans SC5314 biofilm co-cultured with African green monkey Vero cells assessed as lysosomal membrane permeabilization at 16 ug/ml incubated for 18 hrs by PI/acridine orange double staining based confocal laser scanning microscopic analysis; assay type: functional, organism-based; conditions: dose 16.0 µg/ml
Candida albicans [17] = assay: Antifungal activity against Candida albicans SC5314 assessed as inhibition of fungal growth at 8 ug/ml incubated for 48 hrs by M27-A3 based microdilution method relative to control; assay type: functional
Candida albicans [18] = assay: Antifungal activity against Candida albicans SC5314 assessed as inhibition of fungal growth at 1 ug/ml incubated for 48 hrs by M27-A3 based microdilution method relative to control; assay type: functional
Candida albicans [19] = assay: Antifungal activity against Candida albicans SC5314 assessed as inhibition of fungal growth at 0.0625 ug/ml incubated for 48 hrs by M27-A3 based microdilution method relative to control; assay type: functional
[20] = Cytotoxicity against human TR146 cells at more than 64 ug/ml measured after 24 hrs by XTT assay; assay type: toxicity, cell-based; conditions: tr146, 24 h, dose 64 µg/ml
Candida albicans [21] = assay: In vivo antifungal activity against Candida albicans SC5314 infected in Galleria mellonella larvae assessed as survival of larvae by measuring health score index at 16 ug/ml administered 1 hr prior to infection measured within 5 days by Hematoxylin and eosin staining; assay type: functional, organism-based; conditions: dose 16.0 µg/ml, time 5.0 day
Candida albicans [22] = assay: Antifungal activity against Candida albicans SC5314 assessed as inhibition of fungal growth at 0.03125 ug/ml incubated for 18 hrs by M27-A3 based microdilution method relative to control; assay type: functional
Candida albicans [23] = assay: Antifungal activity against Candida albicans SC5314 assessed as inhibition of fungal growth at 0.125 ug/ml incubated for 18 hrs by M27-A3 based microdilution method relative to control; assay type: functional
Candida albicans [24] = assay: Antifungal against Candida albicans cnb1delta/cnb1delta mutant biofilm assessed as increase cell membrane permeability at 16 ug/ml incubated for 18 hrs by Rho123 and Hoechst 33342 double staining based confocal laser scanning microscopic analysis; assay type: functional, organism-based; conditions: dose 16.0 µg/ml
Candida albicans [25] = assay: Downregulation of HSP90 gene expression in Candida albicans cnb1delta/CNB1 mutant at 2 ug/ml incubated for 6 hrs in presence of calcium chloride by RT-PCR analysis; assay type: functional; conditions: dose 2.0 µg/ml
Candida albicans [26] = assay: Induction of macrophage-mediated Candida albicans SC5314 phagocytosis assessed as change in chitin at 16 ug/ml incubated for 18 hrs in presence of mouse RAW264.7 macrophages by PI/Acridine orange double staining based confocal laser scanning microscopic analysis; assay type: functional; conditions: dose 16.0 µg/ml
Candida tropicalis = assay: Inhibition of ergosterol biosynthesis in Candida tropicalis C129 assessed as reduction in ergosterol level incubated for 18 hrs by spectrophotometric analysis; assay type: functional; conditions: dose 0.06-32 µg/ml, DDE = dose-dependent effect
Candida albicans [27] = assay: Antifungal activity against Candida albicans SC5314 assessed as inhibition of fungal growth at 0.125 ug/ml incubated for 48 hrs by M27-A3 based microdilution method relative to control; assay type: functional
Candida albicans [28] = assay: Antifungal activity against Candida albicans SC5314 assessed as inhibition of fungal growth at 2 ug/ml incubated for 48 hrs by M27-A3 based microdilution method relative to control; assay type: functional
Candida albicans [29] = assay: Inhibition of ergosterol biosynthesis in Candida albicans SC5314 assessed as reduction in ergosterol level incubated for 18 hrs by spectrophotometric analysis; assay type: functional; conditions: dose 0.06-32 µg/ml, DDE = dose-dependent effect
Candida albicans [30] = assay: Effect on HSP90 expression in Candida albicans BWP17 assessed as decrease in relative expression of HSP90 gene level at 2 ug/ml incubated for 18 hrs by RT-PCR analysis; assay type: functional; conditions: dose 2.0 µg/ml
Vero = assay: Cytotoxicity against African green monkey Vero cells at > 64 ug/ml measured after 24 hrs by XTT assay; assay type: toxicity, cell-based; conditions: chlorocebus sabaeus, dose > 64 µg/ml

For `O=C1CN=C(c2ccccc2Br)c2cc(F)ccc2N1CCCn1nnc(-c2ccccc2Cl)n1`, the inhibition at 0.0625 µg/mL (Candida albicans [1]) was 99.2%, the inhibition at 1 µg/mL (Candida albicans [2]) was 99.1% and the Activity (Candida albicans [3]) was 24.4%. It also gave an inhibition at 16 µg/mL (Candida albicans [4]) of 100%, an inhibition at 0.5 µg/mL (Candida albicans [5]) of 99.3% and an inhibition at 0.25 µg/mL (Candida albicans [6]) of 100%. For the same compound, the Activity (Candida albicans [7]) was “Active”, the Activity (Candida albicans [8]) was “Active” and the Activity (Candida albicans [9]) was 4.9%. For the same compound, the Activity (Candida albicans [10]) was “Active”, the fold change (FC) (Candida albicans [11]) was 4 and the Activity (Candida albicans [12]) was “Active”. For the same compound, the inhibition at 4 µg/mL (Candida albicans [13]) was 99.3%, the Activity (Candida albicans [14]) was “Active” and the fold change (FC) (Candida albicans [15]) was 4. The Activity (Candida albicans [16]) was “Active”, the inhibition at 8 µg/mL (Candida albicans [17]) was 99.1% and the inhibition at 1 µg/mL (Candida albicans [18]) was 99.2%. For the same compound, the inhibition at 0.0625 µg/mL (Candida albicans [19]) was 99.4%, the Activity [20] was “Non-Toxic” and the Activity (Candida albicans [21]) was “Active”. For the same compound, the inhibition at 0.03125 µg/mL (Candida albicans [22]) was 100%, the inhibition at 0.125 µg/mL (Candida albicans [23]) was 99.3% and the Activity (Candida albicans [24]) was “Active”. For the same compound, the Activity (Candida albicans [25]) was “Active”, the Activity (Candida albicans [26]) was “Active” and the Activity (Candida tropicalis) was “Dde”. The inhibition at 0.125 µg/mL (Candida albicans [27]) was 99.3%, the inhibition at 2 µg/mL (Candida albicans [28]) was 100% and the Activity (Candida albicans [29]) was “Dde”. The Activity (Candida albicans [30]) was “Active” and the Activity (Vero) was “Toxic”.
